Source: ChEMBL document CHEMBL5512624, “OSMAC Strategy: A promising way to explore microbial cyclic peptides” (Eur J Med Chem, 2024)
In brackets after ≈: the same amount, converted by molar mass. Numbered stars: 1 amine (or outer) side, 2 acyl side, 3 side chain; on linkers, the order of the positions; unused ones are H or OH. Square brackets hold non-standard residues; d marks the D form. Peptide text beside a SMILES is read from it. X5 = C=C(N[*:1])c1nc(-c2nc(C(=O)[*:2])ccc2-c2nccs2)co1; X1 = CCC(C)CCCCCCCCCCC[C@H](N[*:1])C(=O)[*:2]; X7 = CC(C)CCCCCCCCCCC[C@H](N[*:1])C(=O)[*:2]; X2 = CCC(C)CCCCCCCCC[C@H](N[*:1])C(=O)[*:2]; X6 = CC(C)CCCCCCCCCC[C@H](N[*:1])C(=O)[*:2]; X8 = CCCCCCCCCCCCCC[C@H](N[*:1])C(=O)[*:2]; Gly(Dodecyl) = CCCCCCCCCCCC[C@H](N)C(=O)O; X3 = C/C=C(\N[*:1])c1nc(C(=O)[*:2])co1; X4 = C=C(N[*:1])c1nc(C(=O)[*:2])c(C)o1; NMeY = CN[C@@H](Cc1ccc(O)cc1)C(=O)O; Val(3-OH) = CC(C)(O)[C@H](N)C(=O)O; Dha = C=C(N)C(=O)O

What was measured:
Aspergillus niger = test: Antifungal activity against Aspergillus niger assessed as fungal growth inhibition; format: functional
Aspergillus fumigatus = test: Antifungal activity against Aspergillus fumigatus ATCC 46645 assessed as fungal growth inhibition incubated for 24 hrs by CLSI protocol based broth microdilution method; format: functional, organism-based; conditions: ATCC 46645, 24 h
Influenza A virus = test: Antiviral activity against Influenza A virus H9N2 infected in MDCK cells assessed as inhibition of viral replication; format: functional, organism-based
Plasmodium falciparum = test: Antiplasmodial activity against Plasmodium falciparum 3D7 assessed as reduction in parasite growth incubated for 72 hrs by SYBR Green dye based fluorescence assay; format: functional, organism-based; conditions: 3D7, 72 h
Trypanosoma cruzi = test: Antitrypanosomal activity against Trypanosoma cruzi amastigote assessed as parasite growth inhibition incubated for 24 hrs by light microscopic analysis; format: functional, organism-based
[1] = Inhibition rat liver microsome ACAT; format: microsomes
Human alphaherpesvirus 1 = test: Antiviral activity against HSV-1 infected in African green monkey Vero cells by plaque reduction assay; format: functional, organism-based; conditions: Human alphaherpesvirus 1, Vero
SW480 = test: Cytotoxicity against human SW480 cells assessed as reduction in cell viability incubated for 24 hrs by MTT assay; format: functional, cell-based; conditions: SW480, 24 h
HL-60 = test: Cytotoxicity against human HL-60 cells assessed as reduction in cell viability incubated for 24 hrs by MTT assay; format: functional, cell-based; conditions: HL-60, 24 h
MCF7 = test: Cytotoxicity against human MCF7 cells assessed as reduction in cell viability incubated for 24 hrs by MTT assay; format: functional, cell-based; conditions: MCF7, 24 h

SMILES: CC(C)CCCCCCCCCCC[C@@H]1NC(=O)[C@@H]2CCCN2C(=O)[C@H](CCC(N)=O)NC(=O)[C@H](CC(N)=O)NC(=O)[C@H](CO)NC(=O)[C@H](CC(N)=O)NC(=O)[C@H](Cc2ccc(O)cc2)NC(=O)[C@H](CC(N)=O)NC1=O (cyclo(NQP[X7]NYNS))
- MIC (Aspergillus niger): 3.12 µg/mL (≈ 2.91 µM)

SMILES: CCCCCCC/C=C/C=C/C=C/[C@H](C[C@H](O)C[C@@H]1CC(=O)NC[C@@H](C)C(=O)N[C@@H](CC(N)=O)C(=O)N[C@H](CC(N)=O)C(=O)N[C@@H](C[C@H](O)CO)C(=O)N1)OC
- IC50 (Aspergillus fumigatus): 4 µM

SMILES: CCCCCCC/C=C/C=C/C=C/[C@H](C[C@H](O)C[C@@H]1CC(=O)NC[C@@H](C)C(=O)N[C@@H](C[C@H](O)CO)C(=O)N[C@H](CC(N)=O)C(=O)N[C@@H](C[C@H](O)CO)C(=O)N1)OC
- IC50 (Aspergillus fumigatus): 4 µM

SMILES: C=C(NC(=O)c1ccc(-c2nccs2)c(-c2coc(C(=C)NC(=O)C(=C)NC(=O)c3nc(C(=C)NC(=O)[C@@H](NC(=O)C(=C)NC(=O)c4coc(/C(=C/C)NC(=O)[C@@H](NC(C)=O)[C@@H](C)O)n4)C(C)(C)O)oc3C)n2)n1)C(N)=O (Ac-T[X3][Dha][Val(3-OH)][X4][Dha][X5][Dha]-NH2)
- IC50 (Influenza A virus): 7.3 µM

SMILES: CCC(C)CCCCCCCCCCC[C@@H]1NC(=O)[C@@H]2CCCN2C(=O)[C@H](CCC(N)=O)NC(=O)[C@H](CC(N)=O)NC(=O)[C@H](CO)NC(=O)[C@H](CC(N)=O)NC(=O)[C@H](Cc2ccc(O)cc2)NC(=O)[C@H](CC(N)=O)NC1=O (some centres not stated) (cyclo(NQP[X1]NYNS))
- MIC (Aspergillus niger): 3.12 µg/mL (≈ 2.87 µM)

SMILES: CCCCCCCCCCCC[C@@H]1NC(=O)[C@@H]2CCCN2C(=O)[C@H](CCC(N)=O)NC(=O)[C@H](CC(N)=O)NC(=O)[C@H](CO)NC(=O)[C@H](CC(N)=O)NC(=O)[C@H](Cc2ccc(O)cc2)NC(=O)[C@H](CC(N)=O)NC1=O (cyclo(NQP[Gly(Dodecyl)]NYNS))
- MIC (Aspergillus niger): 3.12 µg/mL (≈ 2.99 µM)

SMILES: C=C(NC(=O)C(=C)NC(=O)c1ccc(-c2nccs2)c(-c2coc(C(=C)NC(=O)C(=C)NC(=O)c3nc(C(=C)NC(=O)[C@@H](NC(=O)C(=C)NC(=O)c4coc(/C(=C/C)NC(=O)[C@@H](NC(C)=O)[C@@H](C)O)n4)C(C)(C)O)oc3C)n2)n1)C(N)=O (Ac-T[X3][Dha][Val(3-OH)][X4][Dha][X5][Dha][Dha]-NH2)
- IC50 (Influenza A virus): 15.3 µM

SMILES: CCCCCCC/C=C/C=C/C=C/[C@H](C[C@H](O)C[C@H]1NC(=O)[C@H](C[C@H](O)CO)NC(=O)[C@@H](CC(N)=O)NC(=O)[C@H](CC(N)=O)NC(=O)[C@H](C)CNC(=O)[C@H]1O)OC
- IC50 (Aspergillus fumigatus): 4 µM

SMILES: CCCCCCC/C=C/C=C/C=C/[C@H](C[C@H](O)C[C@H]1NC(=O)[C@H](C[C@H](O)CO)NC(=O)[C@@H](CC(N)=O)NC(=O)[C@H](C[C@H](O)CO)NC(=O)[C@H](C)CNC(=O)[C@H]1O)OC
- IC50 (Aspergillus fumigatus): 4 µM

SMILES: CC(C)CCCCCCCCCC[C@@H]1NC(=O)[C@@H]2CCCN2C(=O)[C@H](CCC(N)=O)NC(=O)[C@H](CC(N)=O)NC(=O)[C@H](CO)NC(=O)[C@H](CC(N)=O)NC(=O)[C@H](Cc2ccc(O)cc2)NC(=O)[C@H](CC(N)=O)NC1=O (cyclo(NQP[X6]NYNS))
- MIC (Aspergillus niger): 3.12 µg/mL (≈ 2.95 µM)

SMILES: CCCCCCC/C=C/C=C/C=C/[C@H](C[C@H](O)C[C@H]1NC(=O)[C@H](C[C@H](O)C(C)O)NC(=O)[C@@H](CC(N)=O)NC(=O)[C@H](CC(N)=O)NC(=O)[C@H](C)CNC(=O)[C@H]1O)OC (some centres not stated)
- IC50 (Aspergillus fumigatus): 4 µM

SMILES: COc1ccc2c3c([nH]c2c1)[C@H](C=C(C)C)N1C(=O)[C@@H]2CCCN2C(=O)[C@@H]1C3 [FUMITREMORGIN]
- IC50 (Plasmodium falciparum): 2.3 µM
- IC50 (Trypanosoma cruzi): 9.6 µM

SMILES: C=C(NC(=O)c1nc(C(=C)NC(=O)[C@@H](NC(=O)C(=C)NC(=O)c2coc(/C(=C/C)NC(=O)[C@@H](NC(C)=O)[C@@H](C)O)n2)C(C)C)oc1C)C(=O)NC(=C)c1nc(-c2nc(C(N)=O)ccc2-c2nccs2)co1
- IC50 (Influenza A virus): 28.7 µM

SMILES: C=C(NC(=O)C(=C)NC(=O)c1ccc(-c2nccs2)c(-c2coc(C(=C)NC(=O)C(=C)NC(=O)c3nc(C(=C)NC(=O)[C@@H](NC(=O)C(=C)NC(=O)c4coc(/C(=C/C)NC(=O)[C@@H](NC(C)=O)[C@@H](C)O)n4)C(C)C)oc3C)n2)n1)C(N)=O (Ac-T[X3][Dha]V[X4][Dha][X5][Dha][Dha]-NH2)
- IC50 (Influenza A virus): 18.3 µM

SMILES: CC(C)[C@H]1OC(=O)[C@H](Cc2ccccc2)N(C)C(=O)[C@@H](C(C)C)OC(=O)[C@H](Cc2ccccc2)N(C)C(=O)[C@@H](C(C)C)OC(=O)[C@H](Cc2ccccc2)N(C)C1=O
- IC50 [1]: 3 µM

SMILES: CCC(C)CCCCCCCCC[C@@H]1NC(=O)[C@@H]2CCCN2C(=O)[C@H](CCC(N)=O)NC(=O)[C@H](CC(N)=O)NC(=O)[C@H](CO)NC(=O)[C@H](CC(N)=O)NC(=O)[C@H](Cc2ccc(O)cc2)NC(=O)[C@H](CC(N)=O)NC1=O (some centres not stated) (cyclo(NQP[X2]NYNS))
- MIC (Aspergillus niger): 3.12 µg/mL (≈ 2.95 µM)

SMILES: COc1ccc(C[C@@H]2NC(=O)[C@@H]3CCCN3C(=O)[C@H](C(C)C)NC(=O)[C@H](Cc3ccc(O)cc3)N(C)C(=O)[C@H](Cc3ccc(OC)cc3)NC2=O)cc1 (cyclo([NMeY]VPY(Me)Y(Me)))
- IC50 (Human alphaherpesvirus 1): 9.5 µM

SMILES: CCCCCCCCCCCCCC[C@@H]1NC(=O)[C@@H]2CCCN2C(=O)[C@H](CCC(N)=O)NC(=O)[C@H](CC(N)=O)NC(=O)[C@H](CO)NC(=O)[C@H](CC(N)=O)NC(=O)[C@H](Cc2ccc(O)cc2)NC(=O)[C@H](CC(N)=O)NC1=O (cyclo(NQP[X8]NYNS))
- MIC (Aspergillus niger): 3.12 µg/mL (≈ 2.91 µM)

SMILES: CC[C@H](C)[C@@H]1NC(=O)[C@@H]2[C@H](C)CCN2C(=O)[C@H](C[C@H](O)CCl)OC(=O)CCNC(=O)[C@@H](C)N(C)C(=O)[C@H]([C@@H](C)CC)N(C)C1=O
- IC50 (SW480): 0.107 µM
- IC50 (HL-60): 0.149 µM
- IC50 (MCF7): 0.079 µM
